Molecular target: T1, FUT7 (Homo sapiens, UniProt Q11130)
T1 sequence (Q11130 1-342): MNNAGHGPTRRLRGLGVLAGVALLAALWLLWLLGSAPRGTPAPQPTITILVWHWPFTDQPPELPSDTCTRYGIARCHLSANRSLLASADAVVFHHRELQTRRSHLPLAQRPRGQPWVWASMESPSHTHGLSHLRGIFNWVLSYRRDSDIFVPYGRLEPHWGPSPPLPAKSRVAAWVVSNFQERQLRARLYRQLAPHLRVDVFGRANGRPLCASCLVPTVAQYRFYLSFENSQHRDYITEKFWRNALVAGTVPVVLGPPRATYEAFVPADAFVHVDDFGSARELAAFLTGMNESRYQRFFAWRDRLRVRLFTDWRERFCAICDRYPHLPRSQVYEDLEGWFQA
Assay: in vitro fucosyltransferase assay, competition with GDP-Fuc transfer
Format: biochemical

For Nc1nc2c(ncn2[C@@H]2O[C@H](COP(=O)(O)OP(=O)(O)O[C@H]3O[C@@H](CF)[C@@H](O)[C@@H](O)[C@@H]3O)[C@@H](O)[C@H]2O)c(=O)[nH]1 [compound 6, GDP-6F-Fuc], the IC50 was ~2500 nM.

— paper PMC3427410 (Nature chemical biology, 2012)
